# Experimental data as given in paper PMC8583042, “New Hybrid Compounds Combining Fragments of Usnic Acid and Thioether Are Inhibitors of Human Enzymes TDP1, TDP2 and PARP1” (International Journal of Molecular Sciences, 2021).
# Target: T1, TDP1 (Homo sapiens, UniProt Q9NUW8)
# T1 construct: made in house; host or cells: E. coli
# Experiment: Real-time fluorescence assay of TDP1 activity
# Type: biochemical
# Conditions: real-time fluorescent assay, 1.5 nM TDP1, 50 nM oligonucleotide; read-out: IC50 (TDP1)
# Source text: We tested UA and all 14 newly synthesized UA derivatives for their TDP1 inhibitory properties by measuring their IC50 values using a real-time fluorescent assay. […] Compounds 10a,b are sulfoxide analogs of 7g,h.
# Human recombinant tyrosyl-DNA phosphodiesterase 1 (TDP1) and human recombinant poly(ADP-ribose)-polymerase1 (PARP1) were expressed in the E. coli system and purified as described.
# The biosensor (5′-[FAM] AAC GTC AGGGTC TTC C [BHQ]-3′) was synthesized in the Laboratory of Nucleic Acid Chemistry at the Institute of Chemical Biology and Fundamental Medicine (Novosibirsk, Russia) and was used for TDP1 enzyme activity real-time fluorescence detection. The reaction mixture (200 μL) contained a TDP1 reaction buffer (50 mM Tris-HCl, pH 8.0, 50 mM NaCl, and 7 mM β-mercaptoethanol), 50 nM oligonucleotide, varied concentrations of the tested compounds, and purified TDP1 in a final concentration 1.5 nM. The reaction mixtures were incubated at a constant temperature of 26 °C in a POLARstar OPTIMA fluorimeter (BMG LABTECH, GmbH, Ortenberg, Germany). Fluorescence intensity was measured (Ex485/Em520 nm) every 1 min for 10 min. The average values of the half maximal inhibitory concentration (IC50) were determined using an eleven-point concentration response curve and calculated using MARS Data Analysis 2.0 (BMG LABTECH). The 50% inhibitory concentration (IC50) was defined as the concentration of the compound that inhibited 50% of the enzyme activity when compared to the untreated controls. At least three independent experiments were carried out to obtain the IC50 values. To determine the kinetic parameters of the TDP1 enzymatic reaction, the apparent maximum rate of enzymatic reaction (Vmax), Michaelis constant (KM), possible inhibition mechanism, and steady-state kinetic experiments were carried out at 5 fixed concentrations of the substrate, with variation in the inhibitor concentrations. The standard reaction mixtures (200 μL) contained reaction buffer components; 50 nM, 100 nM, 200 nM, 500 nM, or 1000 nM substrate; an inhibitor; and 1.5 nM recombinant human TDP1. The initial kinetic curves were obtained in three independent experiments and statistically processed in OriginPro 8.6.0 (OriginLab, Northampton, MA, USA).
# T1 sequence (Q9NUW8 whole entry): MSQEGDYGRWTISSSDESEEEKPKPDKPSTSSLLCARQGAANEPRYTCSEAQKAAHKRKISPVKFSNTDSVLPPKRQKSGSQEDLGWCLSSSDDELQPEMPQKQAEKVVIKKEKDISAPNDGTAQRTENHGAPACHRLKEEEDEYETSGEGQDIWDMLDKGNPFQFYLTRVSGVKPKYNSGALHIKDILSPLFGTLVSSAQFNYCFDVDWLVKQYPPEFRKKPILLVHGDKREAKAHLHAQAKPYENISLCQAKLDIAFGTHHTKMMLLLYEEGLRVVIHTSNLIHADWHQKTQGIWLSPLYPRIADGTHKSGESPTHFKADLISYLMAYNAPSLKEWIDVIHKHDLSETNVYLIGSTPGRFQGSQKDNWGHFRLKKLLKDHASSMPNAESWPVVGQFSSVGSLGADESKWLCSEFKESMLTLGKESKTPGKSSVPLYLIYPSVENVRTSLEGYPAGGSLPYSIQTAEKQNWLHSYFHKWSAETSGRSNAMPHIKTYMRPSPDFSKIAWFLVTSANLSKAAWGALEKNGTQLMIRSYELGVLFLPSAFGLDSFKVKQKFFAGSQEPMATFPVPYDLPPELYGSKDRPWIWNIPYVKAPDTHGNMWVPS
row,IC50,Compound
1,25.2 ± 6.5 µM,CC(=O)C1=C(O)C=C2Oc3c(C(=O)CSc4nnc[nH]4)c(O)c(C)c(O)c3C2(C)C1=O (stereo not shown) [7d]
2,11.9 ± 0.4 µM,"CC(=O)C1=C(O)C=C2Oc3c(C(=O)CSc4ccccn4)c(O)c(C)c(O)c3[C@@]2(C)C1=O [7i, (2R)-4-acetyl-5,11,13-trihydroxy-2,12-dimethyl-10-[2-(pyridin-2-ylsulfanyl)acetyl]-8-oxatricyclo[7.4.0. 0^2,7]trideca-1(13),4,6,9,11-pentaen-3-one]"
3,16.9 ± 2.4 µM,"CC(=O)C1=C(O)C=C2Oc3c(C(=O)CSc4ncccn4)c(O)c(C)c(O)c3[C@@]2(C)C1=O [7j, (2R)-4-acetyl-5,11,13-trihydroxy-2,12-dimethyl-10-[2-(pyrimidin-2-ylsulfanyl)acetyl]-8-oxatricyclo[7.4.0. 0^2,7]trideca-1(13),4,6,9,11-pentaen-3-one]"
4,19.6 ± 2.8 µM,CC(=O)C1=C(O)C=C2Oc3c(C(=O)CSc4ncccc4C(=O)O)c(O)c(C)c(O)c3C2(C)C1=O (stereo not shown) [7k]
